Laboratory results: ChEMBL document CHEMBL5042519, “Design and synthesis of marine sesterterpene analogues as novel estrogen receptor α degraders for breast cancer treatment” (Eur J Med Chem, 2022)
pIC50: −log10 of the molar value. Where a name gives a salt, the structure may show the parent alone. Active and inactive are the calls of the source. The rule behind the calls is not given here.

What was measured:
MCF7 [1] = test: Antiproliferative activity against human MCF7/ADR cells assessed as reduction in cell viability after 48 hrs by MTT assay; assay type: functional, cell-based; conditions: MCF7, 48 h
[2] = Resistance index, ratio of IC50 for antiproliferative activity against human MCF7/ADR cells to IC50 for antiproliferative activity against human MCF7 cells; assay type: functional
MDA-MB-231 = test: Antiproliferative activity against human MDA-MB-231 cells assessed as reduction in cell viability after 48 hrs by MTT assay; conditions: MDA-MB-231, 48 h
MCF7 [3] = test: Antiproliferative activity against human MCF7 cells assessed as reduction in cell viability after 48 hrs by MTT assay; assay type: functional, cell-based; conditions: MCF7, 48 h
[4] = target: T1, Estrogen receptor (Homo sapiens) (UniProt P03372); test: Induction of ERalpha degradation in human MCF7 cells assessed as decrease in ERalpha protein expression at 1 uM incubated for 24 hrs by Western blot analysis; assay type: cell-based
T1 sequence (whole entry): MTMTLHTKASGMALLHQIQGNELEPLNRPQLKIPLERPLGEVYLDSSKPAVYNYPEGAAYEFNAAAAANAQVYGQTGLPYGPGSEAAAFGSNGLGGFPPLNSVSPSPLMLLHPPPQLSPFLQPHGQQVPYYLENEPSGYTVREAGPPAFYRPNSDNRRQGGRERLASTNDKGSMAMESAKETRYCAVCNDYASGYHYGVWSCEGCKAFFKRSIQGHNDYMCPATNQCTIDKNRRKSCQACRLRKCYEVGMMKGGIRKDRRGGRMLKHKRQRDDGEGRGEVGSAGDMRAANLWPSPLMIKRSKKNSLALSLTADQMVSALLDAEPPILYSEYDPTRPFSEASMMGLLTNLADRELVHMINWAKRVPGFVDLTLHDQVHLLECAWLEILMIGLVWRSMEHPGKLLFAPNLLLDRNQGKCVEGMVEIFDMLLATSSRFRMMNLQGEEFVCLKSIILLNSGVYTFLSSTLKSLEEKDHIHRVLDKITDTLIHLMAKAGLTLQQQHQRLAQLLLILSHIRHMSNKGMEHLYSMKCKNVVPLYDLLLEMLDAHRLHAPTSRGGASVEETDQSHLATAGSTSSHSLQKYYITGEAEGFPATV

[5] = Antiproliferative activity against human MCF-10A cells assessed as reduction in cell viability after 48 hrs by MTT assay; assay type: toxicity, cell-based
[6] = Selectivity index, ratio of IC50 for antiproliferative activity against human MCF-10A cells to IC50 for antiproliferative activity against human MDA-MB-231 cells by MTT assay; assay type: toxicity, cell-based; conditions: MCF-10A cells versus MDA-MB-231 cells, read-out: Ratio IC50

Row | SMILES | pIC50 (MCF7 [1]) | pIC50 (MDA-MB-231) | pIC50 (MCF7 [3]) | Activity [4] | Ratio IC50 [2] | IC50 at 48 h [5] | selectivity ratio [6]
1 | COCCOCCOCCOC(=O)/C=C\C=C/[C@H](C)[C@H]1CC[C@]2(C)C[C@@H]3C(C)=CC(=O)[C@H]3/C(C=O)=C\C[C@@H]12 | 5.49 | 5.63 | 5.31 |  | 0.67 |  | 
2 | CCCCCOC(=O)/C=C/[C@H](C)[C@H]1CC[C@]2(C)C[C@@H]3C(C)=CC(=O)[C@H]3/C(C=O)=C\C[C@@H]12 | 5.70 | 5.62 | 5.53 |  | 0.67 |  | 
3 | CC1=CC(=O)[C@H]2/C(C=O)=C\C[C@H]3[C@@H]([C@@H](C)/C=C\C=C/C(=O)OCCOCCOCCOCCOC(=O)CC45CC6CC(CC(C6)C4)C5)CC[C@]3(C)C[C@H]12 | 5.69 | 6.00 | 5.90 | Active | 1.61 |  | 
4 | CCCCOC(=O)/C=C/[C@H](C)[C@H]1CC[C@]2(C)C[C@@H]3C(C)=CC(=O)[C@H]3/C(C=O)=C\C[C@@H]12 | 5.77 | 5.83 | 5.65 |  | 0.75 |  | 
5 | CCCCCCCOC(=O)/C=C/[C@H](C)[C@H]1CC[C@]2(C)C[C@@H]3C(C)=CC(=O)[C@H]3/C(C=O)=C\C[C@@H]12 | 5.89 | 6.01 | 5.66 |  | 0.58 |  | 
6 | COCCOCCOCCOC(=O)/C=C/[C@H](C)[C@H]1CC[C@]2(C)C[C@@H]3C(C)=CC(=O)[C@H]3/C(C=O)=C\C[C@@H]12 | 5.65 | 5.50 | 5.42 |  | 0.6 |  | 
7 | CC1=CC(=O)[C@H]2/C(C=O)=C\C[C@H]3[C@@H]([C@@H](C)/C=C/C(=O)OCCCCCCCCOC(=O)CC45CC6CC(CC(C6)C4)C5)CC[C@]3(C)C[C@H]12 | 5.72 | 6.12 | 5.54 |  | 0.67 |  | 
8 | COc1cccc2c1C(=O)c1c(O)c3c(c(O)c1C2=O)C[C@@](O)(C(=O)CO)C[C@@H]3O[C@H]1C[C@H](N)[C@H](O)[C@H](C)O1 [DOXORUBICIN HYDROCHLORIDE] |  |  |  |  |  | 860 nM | 
9 | CCCCCOC(=O)/C=C\C=C/[C@H](C)[C@H]1CC[C@]2(C)C[C@@H]3C(C)=CC(=O)[C@H]3/C(C=O)=C\C[C@@H]12 | 5.86 | 5.78 | 5.74 |  | 0.74 |  | 
10 | CCCCCCOC(=O)/C=C/[C@H](C)[C@H]1CC[C@]2(C)C[C@@H]3C(C)=CC(=O)[C@H]3/C(C=O)=C\C[C@@H]12 | 5.79 | 6.07 | 5.74 |  | 0.89 |  | 
11 | CC1=CC(=O)[C@H]2/C(C=O)=C\C[C@H]3[C@@H]([C@@H](C)/C=C\C=C/C(=O)OCCOCCOOC(=O)CC45CC6CC(CC(C6)C4)C5)CC[C@]3(C)C[C@H]12 | < 5.00 | < 5.00 | < 5.00 |  |  |  | 
12 | CC1=CC(=O)[C@H]2/C(C=O)=C\C[C@H]3[C@@H]([C@@H](C)/C=C\C=C/C(=O)OCCCCCCCCOC(=O)CC45CC6CC(CC(C6)C4)C5)CC[C@]3(C)C[C@H]12 | 5.83 | 6.16 | 5.75 |  | 0.85 |  | 
13 | CCCCOC(=O)/C=C\C=C/[C@H](C)[C@H]1CC[C@]2(C)C[C@@H]3C(C)=CC(=O)[C@H]3/C(C=O)=C\C[C@@H]12 | 5.73 | 5.86 | 5.84 |  | 1.28 |  | 

The next lines start with results.

Row | pIC50 (MCF7 [1]) | pIC50 (MDA-MB-231) | pIC50 (MCF7 [3]) | Activity [4] | SMILES | Ratio IC50 [2] | IC50 at 48 h [5] | selectivity ratio [6]
14 | 6.02 | 6.36 | 5.84 |  | CC1=CC(=O)[C@H]2/C(C=O)=C\C[C@H]3[C@@H]([C@@H](C)/C=C\C=C/C(=O)OCCCOC(=O)CC45CC6CC(CC(C6)C4)C5)CC[C@]3(C)C[C@H]12 | 0.66 |  | 
15 | 5.95 | 6.11 | 5.98 |  | CC1=CC(=O)[C@H]2/C(C=O)=C\C[C@H]3[C@@H]([C@@H](C)/C=C/C(=O)OCCOCCOC(=O)CC45CC6CC(CC(C6)C4)C5)CC[C@]3(C)C[C@H]12 | 1.07 |  | 
16 | 5.95 | 6.11 | 5.60 |  | CCCCCCCCCOC(=O)/C=C\C=C/[C@H](C)[C@H]1CC[C@]2(C)C[C@@H]3C(C)=CC(=O)[C@H]3/C(C=O)=C\C[C@@H]12 | 0.44 | 4830 nM | 1.91
17 | 6.28 | 6.38 | 5.85 |  | CCCCCCCCOC(=O)/C=C/[C@H](C)[C@H]1CC[C@]2(C)C[C@@H]3C(C)=CC(=O)[C@H]3/C(C=O)=C\C[C@@H]12 | 0.37 | 1570 nM | 1.11
18 | 6.07 | 6.03 | 6.02 | Active | CC1=CC(=O)[C@H]2/C(C=O)=C\C[C@H]3[C@@H]([C@@H](C)/C=C/C(=O)OCCOCCOCCOCCOC(=O)CC45CC6CC(CC(C6)C4)C5)CC[C@]3(C)C[C@H]12 | 0.9 |  | 
19 | 6.21 | 6.02 | 6.23 | Active | CC1=CC(=O)[C@H]2/C(C=O)=C\C[C@H]3[C@@H]([C@@H](C)/C=C/C(=O)OC45CC6CC(CC(C6)C4)C5)CC[C@]3(C)C[C@H]12 | 1.03 |  | 
20 | 6.06 | 6.27 | 6.16 | Active | CC1=CC(=O)[C@H]2/C(C=O)=C\C[C@H]3[C@@H]([C@@H](C)/C=C\C=C/C(=O)OCCOCCOC(=O)CC45CC6CC(CC(C6)C4)C5)CC[C@]3(C)C[C@H]12 | 1.26 | 2400 nM | 3.48
21 | 6.14 | 6.24 | 5.74 |  | CCCCCCCCCOC(=O)/C=C/[C@H](C)[C@H]1CC[C@]2(C)C[C@@H]3C(C)=CC(=O)[C@H]3/C(C=O)=C\C[C@@H]12 | 0.4 |  | 
22 | 5.98 | 5.97 | 5.97 | Active | CC1=CC(=O)[C@H]2/C(C=O)=C\C[C@H]3[C@@H]([C@@H](C)/C=C\C=C/C(=O)OC45CC6CC(CC(C6)C4)C5)CC[C@]3(C)C[C@H]12 | 0.96 |  | 
23 | 5.94 | 6.14 | 5.98 | Active | CC1=CC(=O)[C@H]2/C(C=O)=C\C[C@H]3[C@@H]([C@@H](C)/C=C/C(=O)OCCOCCOCCOC(=O)CC45CC6CC(CC(C6)C4)C5)CC[C@]3(C)C[C@H]12 | 1.11 |  | 
24 | 5.90 | 6.04 | 5.73 |  | CCCCCCCCCCOC(=O)/C=C\C=C/[C@H](C)[C@H]1CC[C@]2(C)C[C@@H]3C(C)=CC(=O)[C@H]3/C(C=O)=C\C[C@@H]12 | 0.68 |  | 
25 | 6.03 | 6.16 | 5.86 | Active | CCCCCCCOC(=O)/C=C\C=C/[C@H](C)[C@H]1CC[C@]2(C)C[C@@H]3C(C)=CC(=O)[C@H]3/C(C=O)=C\C[C@@H]12 | 0.68 |  | 
26 | 6.15 | 6.54 | 5.74 |  | CC1=CC(=O)[C@H]2/C(C=O)=C\C[C@H]3[C@@H]([C@@H](C)/C=C/C(=O)OCCCOC(=O)CC45CC6CC(CC(C6)C4)C5)CC[C@]3(C)C[C@H]12 | 0.38 |  | 
27 | 6.10 | 6.19 | 5.98 | Active | CCCCCCOC(=O)/C=C\C=C/[C@H](C)[C@H]1CC[C@]2(C)C[C@@H]3C(C)=CC(=O)[C@H]3/C(C=O)=C\C[C@@H]12 | 0.76 | 1580 nM | 1.52
28 | 6.01 | 6.28 | 5.75 |  | CCCCCCCCOC(=O)/C=C\C=C/[C@H](C)[C@H]1CC[C@]2(C)C[C@@H]3C(C)=CC(=O)[C@H]3/C(C=O)=C\C[C@@H]12 | 0.55 |  | 
29 | 5.99 | 6.52 | 5.78 |  | CCCCCCCCCCOC(=O)/C=C/[C@H](C)[C@H]1CC[C@]2(C)C[C@@H]3C(C)=CC(=O)[C@H]3/C(C=O)=C\C[C@@H]12 | 0.62 | 2160 nM | 1.3
